{"source": "patent US20040152666A1", "about": "“Methods of reducing complications associated with peritoneal dialysis in patients with diabetes obesity and/or hyperlipidemia” (priority 2002, published 2004)", "key": {"[1]": {"conditions": "intraperitoneal infusion of radiolabeled NAG (ref. 19); cited from earlier work"}, "rats": {"tested_on": "rats", "experiment": "Acute peritoneal dialysis in rats with NAG-based or glucose-based dialysis fluid", "assay_type": "in vivo, rat", "experimental": "Peritoneal transport kinetics as well as blood insulin and glucose levels were evaluated in rats during acute peritoneal dialysis. Peritoneal dialysis fluids tested in the studies described herein were prepared in the laboratory and sterilized by filtration. Electrolyte and buffer compositions of both solutions were identical, similar to those contained in commercially available fluids. Concentrations of the individual solutes were as follows (mmol/l): Na 132, Ca 1.75, Mg 0.75, Cl 102, lactate 35. Glucose or NAG were used as osmotic solutes, both in a concentration of 220 mmol/l. Osmolality of the glucose-based dialysis fluid was 478 mOsm/kg H20 and of the solution containing NAG 476 mOsm/kg H2O; pH of the studied fluids was 7.02 and 7.03, respectively.\nAcute peritoneal dialysis was performed in male Wistar rats (b.w.270-330 g) according to the methods described previously (see ref. 10 below). For 24 hours prior to the experiments, animals were given only drinking water and no food. At the beginning of the study, under ether anesthesia, blood samples were collected from the tail vein and thereafter 20 ml of the dialysis fluid was infused via a polyvinyl catheter (1.2 gauge; Vygon, Helsingborg, Sweden); the catheter was instantly removed after infusion. Thereafter the rats were transferred to individual cages, signs of anesthesia disappeared within 5 minutes. Dialysis fluid dwelled in the peritoneal cavity for 1 hour, 3 hours or 6 hours. 12 animals were studied at each time interval: 6 in the NAG group and 6 in the glucose group. During the dialysis animals were conscious with free access to drinking water but no food. At the end of the dwell time rats were again anesthetized with ether, blood samples were collected from the heart and then animals were sacrificed by exsanguination from heart. Afterwards the peritoneal cavity was opened and the dialysate was collected with a pipette. Dialysate volume was measured by weight. Blood and dialysate samples were centrifuged (1500 rpm for 10 minutes) and serum or dialysate supernatant were stored at −20° C. for further analysis. In dialysate samples drained after 6 hrs dwell cell count was determined in a Neubauer chamber.\nSerum and dialysate samples were analyzed for creatinine (enzymatic test, Analco, Warsaw) and total protein were analyzed using Lowry method (11). Sodium concentration in the unused dialysis fluid and dialysate was measured with flame photometry (Eppendorf, Germany). Glucose concentration in serum was measured with an enzymatic test (Sigma Chemical, St.Louis, Mo., U.S.A.). Insulin concentration in serum was measured with ELISA kit (Mercodia, Uppsala, Sweden). Hyaluronan concentration in the dialysate samples was measured with ELISA (Chugai, Japan). Sodium sieving and permeability coefficient for creatinine were calculated for exchanges with 1 hour dwell. Results are presented as mean±SD. Statistical analysis was performed with Mann-Whitney test for unpaired data. A p value less than 0.05 was considered significant."}, "[2]": {"tested_on": "human peritoneal mesothelial cells", "conditions": "in vitro, culture medium supplemented with NAG, within six hours (ref. 12); cited from earlier work"}}}
{"molecule": "CC(=O)N[C@H]1C(O)O[C@H](CO)[C@@H](O)[C@@H]1O", "note": "(stereo partly shown) [NAG, N-acetylglucosamine]", "values": [{"measurement": "appearance of the tracer in the exhaled air", "setting": "[1]", "result": "about 25%"}, {"measurement": "appearance of the tracer in urine", "setting": "[1]", "result": "about 20%"}, {"measurement": "dialysate cell count (intraperitoneal inflammation)", "setting": "rats; rat, in vivo, ip", "result": "945±251", "unit": "cells/μl"}, {"measurement": "dialysate volume compared with glucose-based solution", "setting": "rats; rats, 1 and 3 hrs exchange", "result": "higher"}, {"measurement": "sodium sieving (D/D0)", "setting": "rats; rats, 1 hour exchange, mean±SD", "result": "0.955±0.034"}, {"measurement": "increase of blood insulin level after 3 hours dialysis", "setting": "rats; rats, 3 hours dialysis, mean±SD", "result": "4.5 ± 4.7", "unit": "pmol/L"}, {"measurement": "end dialysate volume", "setting": "rats; rats, 6 hour dwell, osmotic solute 220 mmol/l, 20 ml infused, mean±SD", "result": "34.5 ± 1.7", "unit": "mL"}, {"measurement": "peritoneal permeability to total protein, dialysate/serum ratio×1000 (D/S×1000)", "setting": "rats; rats, 6 hrs dwell, osmotic solute 220 mmol/l, mean±SD", "result": "9.7±2.5"}, {"measurement": "increase of blood glucose level", "setting": "rats; rats, after 1 hour dwell of NAG dialysis fluid", "result": 39, "unit": "%"}, {"measurement": "increase in blood insulin level, times weaker than with dialysis fluid containing glucose", "setting": "rats; rats, after 3 hours dialysis", "result": "about 12 times"}, {"measurement": "increase of blood glucose level", "setting": "rats; rats, after 3 hours dwell of NAG dialysis fluid", "result": 54, "unit": "%"}, {"measurement": "increase of blood glucose level", "setting": "rats; rats, after 6 hours dwell of NAG dialysis fluid", "result": 116, "unit": "%"}, {"measurement": "hyaluronan concentration in the dialysate", "setting": "rats; rats, dialysate after 6 hrs dwell, mean±SD", "result": "60.3 ± 7.8", "unit": "ng/mL"}, {"measurement": "blood glucose concentration, highest observed during dialysis", "setting": "rats; rats, osmotic solute 220 mmol/l, dwell 1, 3 or 6 hours, mean±SD", "result": "91 ± 9", "unit": "mg/dL"}, {"measurement": "increase of blood insulin level (maximal) during dialysis", "setting": "rats; rats, osmotic solute 220 mmol/l, mean±SD", "result": "5.0 ± 5.4", "unit": "pmol/L"}, {"measurement": "synthesis of hyaluronan", "setting": "[2]", "result": "increase within six hours synthesis of hyaluronan"}]}
